Data as given in patent US4084006A, “Method of using dialkylphenols an antiviral agents” (priority 1977, dated 1978).

What was measured:
[1] = system: Measles; test: Inhibition of cytopathic activity (CPE) of measles virus in HEL tissue culture; assay type: cell-based; details: for CPE with 100 TCID50 doses of Measles virus: HEL cells
Method: The anti-viral activity of 2,4-dimethylphenol was studied in the following manner. Tissue cultures derived from human embryonic lung (HEL) were grown and maintained as monolayers in 32 ounce prescription bottles using growth medium consisting of 85% synthetic mixture No. 199 plus 15% unfiltered fetal bovine serum (FBS) adjusted to pH 7.4. Tube cultures of HEL cells were prepared in similar fashion and used in assays for anti-viral activity. During chemotherapy tests, the maintenance medium consisted of synthetic mixture No. 199 with 7.5% FBS. The virus spectrum in tissue culture consisted of two DNA viruses, a San Carlos virus isolated by Davis [see Science 133, 2059, 1961] and later identified as an adenovirus, and the HF strain of herpes simplex virus. In addition, a RNA virus represented by measles was included in the examples.
In performing the initial assays, the tissue cultures were treated prophylactically and the virus was treated in vitro with decreasing 2,4-dimethylphenol concentrations ranging from […] (2 × 10^-6) to 2 attograms (ag) (2 × 10^-18) per ml. The procedure consisted of pretreating tube cultures of HEL cells for two to three days with growth medium containing varying concentrations of 2,4-dimethylphenol. After the prophylactic treatment, the test fluids were removed and replaced with fresh maintenance medium. At this time, 200 TCID50 doses of virus were mixed in vitro with the same decreasing concentrations of the distillate used to pretreat the cells, then the mixture was inoculated into replicate culture of HEL cells so that the final incolum consisted of 100 TCID50 doses of virus in tubes with 2,4-dimethylphenol at the same level used to prophylactically treat the cells.
The same number of infected control tubes were handled in the same way except that 2,4-dimethylphenol was omitted from all media. Culture tubes were rotated at 37° C. and examined daily for a period of 7 days for cytopathic activity (CPE). […] By the same token, the CPE of herpes virus was inhibited by both the 10^-12 and 10^-15 level, possibly indicating two active components. […]

[2] = system: Mycoplasma pulmonis (ATCC 19612); test: Rats infected intranasally with Mycoplasma pulmonis: lung pathology and breeding; assay type: in vivo, Mycoplasma pulmonis (host: rat); details: 1 PPB in drinking water 58 days; three M. pulmonis infected female rats
Excerpt: (§1) Attempts were made to test the effect of infecting rats with Mycoplasma pulmonis (ATCC 19612) so that they could transmit the disease to their cage mates and, also allowed them to breed. This was also done to test if the mothers would pass the infection on to their litters. These rats were purchased from a laboratory in Indianapolis, Indiana and they were divided into 6 groups with male animals in each group. In the 5 experimental groups, a total of 15 female rats out of 30, and in the control group 4 female rats out of 8 were infected intranasally with Mycoplasma pulmonis (ATCC 19612). There were two male rats per experimental group and 3 for the controls totaling 13 male rats, and none of these were infected with M. pulmonis.
(§2) The experimental groups (8 rats each) and control group were treated as follows:
(§3) All rats were fed ad libitum rat chow, and their cages were cleaned 5-6 times weekly. For the 5 experimental groups, the 2,4 DMP was dissolved in distilled water used for their drinking fluid while the control only received distilled water. There were times when the rats spilled excessive amounts of their drinking water and this caused a certain amount of the phenol to be evaporated from these cages, particularly those groups receiving the higher concentrations of the phenol. […]

[3] = system: Mycoplasma pulmonis (ATCC 19612); test: Serum antibodies for Mycoplasma in rats; assay type: in vivo, Mycoplasma pulmonis (host: rat); details: one part per million; two of 19 infected rats in all groups, the other a control
Excerpt: as §1, §2, §3

[4] = system: pneumonia virus of mice (PVM); test: Serum PVM titers in rats; assay type: in vivo, pneumonia virus of mice (host: rat); details: for Mycoplasma infected rats that failed to show titers for PVM: sera of 19 infected rats
Excerpt: as §1, §2
All rats were fed ad libitum rat chow, and their cages were cleaned 5-6 times weekly. For the 5 experimental groups, the 2,4 DMP was dissolved in distilled water used for their drinking fluid while the control only received distilled water. There were times when the rats spilled excessive amounts of their drinking water and this caused a certain amount of the phenol to be evaporated from these cages, particularly those groups receiving the higher concentrations of the phenol. This way, it was possible for the controls to inhale a small but indefinite amount of the phenol which is volatile. All animals were kept in the same laboratory room.
All the male animals (13) were sacrificed after 14 days, and after impregnating the females. Their blood was collected by heart puncture, and the animals lungs were saved in 10% formalin for pathology. All the female rats (18) that were not infected, except one, intranasally with M. pulmonis were sacrificed 30 days post infection of their cage mates. All the young born to these rats (non-infected), during this time were also sacrificed. The blood and lungs from the adult females were saved for study.
The 19 female rats infected with M. pulmonis and one non-infected female were allowed to raise their litters so that the young could be weaned, and then they were sacrificed 58 days post infection, saving their blood and lungs for study.
When the offsprings from the M. pulmonis infected mothers were 40-50 days old a proportionate number selected at random were sacrificed, saving blood and lungs for study:
The serum of each rat sacrificed was tested for antibodies for Mycoplasma. […] One of these rats was in the group receiving one part per million of the phenol and other was a control. Therefore, it was concluded that the Mycoplasma pulmonis was not the cause of the lung infection in these rats, but there was still enough pathology evident in these lungs to suspect some unknown infection. Consequently, the serum of the control rat showing a low titer for Mycoplasma pulmonis was screened by a commercial laboratory for virus infections commonly associated with rats.
All blood serums saved from these experiments were tested for PVM titers. Sera from eight of the 13 males sacrificed at 14 days had detectable titers. All three of these controls had titers indicating PVM infection leaving 5 treated rats with titers for PVM. In the 18 non-infected female rats that were sacrificed after 30 days two rats were negative for PVM titers, one was in the 1 PPM and the other was in the 1 PPB treated groups.

In the case of `Cc1ccc(O)c(C)c1` [2,4-dimethylphenol], the “CPE with 100 TCID50 doses of Measles virus” value (from here on “CPE with 100 TCID50 doses”) ([1]; 10^-6 grams 2X) is reported as 3+ (75% of cells infected with selected virus), the “CPE with 100 TCID50 doses” value ([1]; 10^-7 grams 2X) is reported as 3+ (75% of cells infected with selected virus) and the “CPE with 100 TCID50 doses” value ([1]; 10^-8 grams 2X) is reported as 3+ (75% of cells infected with selected virus). For the same molecule, the “CPE with 100 TCID50 doses” value ([1]; 10^-9 grams 2X) was 2+ (50% of cells infected with selected virus), the “CPE with 100 TCID50 doses” value ([1]; 10^-10 grams 2X) was 2+ (50% of cells infected with selected virus) and the “CPE with 100 TCID50 doses” value ([1]; 10^-11 grams 2X) was 2+ (50% of cells infected with selected virus). The “CPE with 100 TCID50 doses” value ([1]; 10^-12 grams 2X) was 2+ (50% of cells infected with selected virus), the “CPE with 100 TCID50 doses” value ([1]; 10^-13 grams 2X) was 2+ (50% of cells infected with selected virus) and the “CPE with 100 TCID50 doses” value ([1]; 10^-14 grams 2X) was 1+ (25% of cells infected with selected virus). For the same molecule, the “CPE with 100 TCID50 doses” value ([1]; 10^-15 grams 2X) was 1+ (25% of cells infected with selected virus), the “CPE with 100 TCID50 doses” value ([1]; 10^-16 grams 2X) was “± (less than 10% infected)” and the “CPE with 100 TCID50 doses” value ([1]; 10^-17 grams 2X) was 1+ (25% of cells infected with selected virus). The “CPE with 100 TCID50 doses” value ([1]; 10^-18 grams 2X) was 0 (no cells infected), the “Measles CPE” value ([1]; concentrations less than the 10^-14 level) was “appeared to be inhibited” and the “lung infection compared with the other four groups and the controls” value [2] was “for all practical purposes, clear of infection”. For the same molecule, the “M. pulmonis infected rats with detectable Mycoplasma antibody titers” value [3] was “One”, the “non-infected female rats negative for PVM titers” value ([4]; 1 PPM, sacrificed after 30 days, all controls positive) was “one” and the “offspring with detectable titers for PVM” value ([4]; 47 offsprings tested, treated groups and controls exposed to vapors) was “not one”. The “effect on PVM” value ([4]; 51 rats purchased, drinking water) was “appeared to have had an effect on this virus so as to depress its passage to other animals”, the “Mycoplasma infected rats that failed to show titers for PVM” value ([4]; 100 parts per billion) was “two” and the “treated male rats with titers for PVM” value ([4]; males sacrificed at 14 days, all treated groups, all three controls positive) was 5. The “Mycoplasma infected rats that failed to show titers for PVM” value ([4]; one part per million) was “two”.
